Experiments:
Assay in all cases: Microbial challenge testing in BPW
Assay type in all cases: cell-based
Bacillus subtilis = details: for Grade code, B. subtilis, 3 Day / Grade code, B. subtilis, 14 Day / Grade code, B. subtilis, 30 Days: BPW, w/v % in label, average of replicates
How it was run: (§1)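 Test materials, dosed as w/v % in BPW pH 7.0 with 1% dextrose, were challenged with bacteria at 10^5–10^6 cfu/mL starting count. Inocula came from 96 h or longer TSB-dextrose cultures, and counts were checked by PCA spread-plating. Samples were incubated 14 days at 35 °C, then at ambient temperature.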

Staphylococcus aureus = details: for Grade code, S. aureus, 3 Day / Grade code, S. aureus, 14 Day / Grade code, S. aureus, 30 Day: BPW, w/v % in label, average of replicates
How it was run: as §1

Aeromonas sp. = details: for Grade code, Aeromonas sp, 3 Days / Grade code, Aeromonas sp, 14 Days / Grade code, Aeromonas sp, 30 Days: BPW, w/v % in label, average of replicates
How it was run: as §1

Proteus vulgaris = details: for Grade code, P. vulgaris, 3 Days / Grade code, P. vulgaris, 13 Days / Grade code, P. vulgaris, 30 Day: BPW, w/v % in label, average of replicates
How it was run: as §1

[1] = 3 days incubation, listed as 0.5% AB
[2] = 3 days incubation, listed as 1.25% AB
[3] = 3 days incubation, listed as 2.5% AB
[4] = 14 days incubation, listed as 0.5% AB
[5] = 14 days incubation, listed as 1.25% AB
[6] = 14 days incubation, listed as 2.5% AB
[7] = 30 days incubation, listed as 0.5% AB
[8] = 30 days incubation, listed as 1.25% AB
[9] = 30 days incubation, listed as 2.5% AB

SMILES: OCC1CCC(CO)CC1 (stereo not drawn) [1,4-CHDM, 1,4-cyclohexanedimethanol]
- Grade code B. subtilis (Bacillus subtilis; 0.5%, 3 days incubation): 4 (1001 to 10,000 colonies (thus 10,000 cfu/mL to 100,000 cfu/mL))
- Grade code B. subtilis (Bacillus subtilis; 0.5%, 14 days incubation): 4 (1001 to 10,000 colonies (thus 10,000 cfu/mL to 100,000 cfu/mL))
- Grade code B. subtilis (Bacillus subtilis; 0.5%, 30 days incubation): 4 (1001 to 10,000 colonies (thus 10,000 cfu/mL to 100,000 cfu/mL))
- Grade code B. subtilis (Bacillus subtilis; 1.25%, 3 days incubation): 4 (1001 to 10,000 colonies (thus 10,000 cfu/mL to 100,000 cfu/mL))
- Grade code B. subtilis (Bacillus subtilis; 1.25%, 14 days incubation): 4 (1001 to 10,000 colonies (thus 10,000 cfu/mL to 100,000 cfu/mL))
- Grade code B. subtilis (Bacillus subtilis; 1.25%, 30 days incubation): 4 (1001 to 10,000 colonies (thus 10,000 cfu/mL to 100,000 cfu/mL))
- Grade code B. subtilis (Bacillus subtilis; 2.5%, 3 days incubation): 3 (101 to 1000 colonies (thus 1000 to 10,000 cfu/mL))
- Grade code B. subtilis (Bacillus subtilis; 2.5%, 14 days incubation): 2 (52 to 100 colonies counted (thus 520 to 1000 cfu/mL))
- Grade code B. subtilis (Bacillus subtilis; 2.5%, 30 days incubation): 1 (1 to 51 colonies counted (thus 10 to 510 cfu/mL))
- Grade code, B. subtilis, 3 Day (Bacillus subtilis; [1]): 4 (1001 to 10,000 colonies (thus 10,000 cfu/mL to 100,000 cfu/mL))
- Grade code, B. subtilis, 3 Day (Bacillus subtilis; [2]): 4 (1001 to 10,000 colonies (thus 10,000 cfu/mL to 100,000 cfu/mL))
- Grade code, B. subtilis, 3 Day (Bacillus subtilis; [3]): 3 (101 to 1000 colonies (thus 1000 to 10,000 cfu/mL))
- Grade code, B. subtilis, 14 Day (Bacillus subtilis; [4]): 4 (1001 to 10,000 colonies (thus 10,000 cfu/mL to 100,000 cfu/mL))
- Grade code, B. subtilis, 14 Day (Bacillus subtilis; [5]): 4 (1001 to 10,000 colonies (thus 10,000 cfu/mL to 100,000 cfu/mL))
- Grade code, B. subtilis, 14 Day (Bacillus subtilis; [6]): 2 (52 to 100 colonies counted (thus 520 to 1000 cfu/mL))
- Grade code, B. subtilis, 30 Days (Bacillus subtilis; [7]): 4 (1001 to 10,000 colonies (thus 10,000 cfu/mL to 100,000 cfu/mL))
- Grade code, B. subtilis, 30 Days (Bacillus subtilis; [8]): 4 (1001 to 10,000 colonies (thus 10,000 cfu/mL to 100,000 cfu/mL))
- Grade code, B. subtilis, 30 Days (Bacillus subtilis; [9]): 1 (1 to 51 colonies counted (thus 10 to 510 cfu/mL))
- Grade code S. aureus (Staphylococcus aureus; 0.5%, 3 days incubation): 4 (1001 to 10,000 colonies (thus 10,000 cfu/mL to 100,000 cfu/mL))
- Grade code S. aureus (Staphylococcus aureus; 0.5%, 14 days incubation): 4 (1001 to 10,000 colonies (thus 10,000 cfu/mL to 100,000 cfu/mL))
- Grade code S. aureus (Staphylococcus aureus; 0.5%, 30 days incubation): 4 (1001 to 10,000 colonies (thus 10,000 cfu/mL to 100,000 cfu/mL))
- Grade code S. aureus (Staphylococcus aureus; 1.25%, 3 days incubation): 3 (101 to 1000 colonies (thus 1000 to 10,000 cfu/mL))
- Grade code S. aureus (Staphylococcus aureus; 1.25%, 14 days incubation): 2.7
- Grade code S. aureus (Staphylococcus aureus; 1.25%, 30 days incubation): 4 (1001 to 10,000 colonies (thus 10,000 cfu/mL to 100,000 cfu/mL))
- Grade code S. aureus (Staphylococcus aureus; 2.5%, 3 days incubation): 1.7
- Grade code S. aureus (Staphylococcus aureus; 2.5%, 14 days incubation): 1 (1 to 51 colonies counted (thus 10 to 510 cfu/mL))
- Grade code S. aureus (Staphylococcus aureus; 2.5%, 30 days incubation): 0 (No growth detected or <1 colony (thus <10 cfu/mL))
- Grade code, S. aureus, 3 Day (Staphylococcus aureus; [1]): 4 (1001 to 10,000 colonies (thus 10,000 cfu/mL to 100,000 cfu/mL))
- Grade code, S. aureus, 3 Day (Staphylococcus aureus; [2]): 3 (101 to 1000 colonies (thus 1000 to 10,000 cfu/mL))
- Grade code, S. aureus, 3 Day (Staphylococcus aureus; [3]): 1.7
- Grade code, S. aureus, 14 Day (Staphylococcus aureus; [4]): 4 (1001 to 10,000 colonies (thus 10,000 cfu/mL to 100,000 cfu/mL))
- Grade code, S. aureus, 14 Day (Staphylococcus aureus; [5]): 2.7
- Grade code, S. aureus, 14 Day (Staphylococcus aureus; [6]): 1 (1 to 51 colonies counted (thus 10 to 510 cfu/mL))
- Grade code, S. aureus, 30 Day (Staphylococcus aureus; [7]): 4 (1001 to 10,000 colonies (thus 10,000 cfu/mL to 100,000 cfu/mL))
- Grade code, S. aureus, 30 Day (Staphylococcus aureus; [8]): 4 (1001 to 10,000 colonies (thus 10,000 cfu/mL to 100,000 cfu/mL))
- Grade code, S. aureus, 30 Day (Staphylococcus aureus; [9]): 0 (No growth detected or <1 colony (thus <10 cfu/mL))
- Grade code Aeromonas sp (Aeromonas sp.; 0.5%, 3 days incubation): 5 (More than 10,000 colonies estimated (thus >100,000 cfu/mL))
- Grade code Aeromonas sp (Aeromonas sp.; 0.5%, 14 days incubation): 4 (1001 to 10,000 colonies (thus 10,000 cfu/mL to 100,000 cfu/mL))
- Grade code Aeromonas sp (Aeromonas sp.; 0.5%, 30 days incubation): 4 (1001 to 10,000 colonies (thus 10,000 cfu/mL to 100,000 cfu/mL))
- Grade code Aeromonas sp (Aeromonas sp.; 1.25%, 3 days incubation): 4 (1001 to 10,000 colonies (thus 10,000 cfu/mL to 100,000 cfu/mL))
- Grade code Aeromonas sp (Aeromonas sp.; 1.25%, 14 days incubation): 3 (101 to 1000 colonies (thus 1000 to 10,000 cfu/mL))
- Grade code Aeromonas sp (Aeromonas sp.; 1.25%, 30 days incubation): 2 (52 to 100 colonies counted (thus 520 to 1000 cfu/mL))
- Grade code Aeromonas sp (Aeromonas sp.; 2.5%, 3 days incubation): 3 (101 to 1000 colonies (thus 1000 to 10,000 cfu/mL))
- Grade code Aeromonas sp (Aeromonas sp.; 2.5%, 14 days incubation): 1 (1 to 51 colonies counted (thus 10 to 510 cfu/mL))
- Grade code Aeromonas sp (Aeromonas sp.; 2.5%, 30 days incubation): 0 (No growth detected or <1 colony (thus <10 cfu/mL))
- Grade code, Aeromonas sp, 3 Days (Aeromonas sp.; [1]): 5 (More than 10,000 colonies estimated (thus >100,000 cfu/mL))
- Grade code, Aeromonas sp, 3 Days (Aeromonas sp.; [2]): 4 (1001 to 10,000 colonies (thus 10,000 cfu/mL to 100,000 cfu/mL))
- Grade code, Aeromonas sp, 3 Days (Aeromonas sp.; [3]): 3 (101 to 1000 colonies (thus 1000 to 10,000 cfu/mL))
- Grade code, Aeromonas sp, 14 Days (Aeromonas sp.; [4]): 4 (1001 to 10,000 colonies (thus 10,000 cfu/mL to 100,000 cfu/mL))
- Grade code, Aeromonas sp, 14 Days (Aeromonas sp.; [5]): 3 (101 to 1000 colonies (thus 1000 to 10,000 cfu/mL))
- Grade code, Aeromonas sp, 14 Days (Aeromonas sp.; [6]): 1 (1 to 51 colonies counted (thus 10 to 510 cfu/mL))
- Grade code, Aeromonas sp, 30 Days (Aeromonas sp.; [7]): 4 (1001 to 10,000 colonies (thus 10,000 cfu/mL to 100,000 cfu/mL))
- Grade code, Aeromonas sp, 30 Days (Aeromonas sp.; [8]): 2 (52 to 100 colonies counted (thus 520 to 1000 cfu/mL))
- Grade code, Aeromonas sp, 30 Days (Aeromonas sp.; [9]): 0 (No growth detected or <1 colony (thus <10 cfu/mL))
- Grade code P. vulqaris (Proteus vulgaris; 0.5%, 3 days incubation): 4 (1001 to 10,000 colonies (thus 10,000 cfu/mL to 100,000 cfu/mL))
- Grade code P. vulqaris (Proteus vulgaris; 0.5%, 13 days incubation): 4 (1001 to 10,000 colonies (thus 10,000 cfu/mL to 100,000 cfu/mL))
- Grade code P. vulqaris (Proteus vulgaris; 0.5%, 30 days incubation): 4 (1001 to 10,000 colonies (thus 10,000 cfu/mL to 100,000 cfu/mL))
- Grade code P. vulqaris (Proteus vulgaris; 1.25%, 3 days incubation): 3 (101 to 1000 colonies (thus 1000 to 10,000 cfu/mL))
- Grade code P. vulqaris (Proteus vulgaris; 1.25%, 13 days incubation): 2 (52 to 100 colonies counted (thus 520 to 1000 cfu/mL))
- Grade code P. vulqaris (Proteus vulgaris; 1.25%, 30 days incubation): 0 (No growth detected or <1 colony (thus <10 cfu/mL))
- Grade code P. vulqaris (Proteus vulgaris; 2.5%, 3 days incubation): 1 (1 to 51 colonies counted (thus 10 to 510 cfu/mL))
- Grade code P. vulqaris (Proteus vulgaris; 2.5%, 13 days incubation): 0 (No growth detected or <1 colony (thus <10 cfu/mL))
- Grade code P. vulqaris (Proteus vulgaris; 2.5%, 30 days incubation): 0 (No growth detected or <1 colony (thus <10 cfu/mL))
- Grade code, P. vulgaris, 3 Days (Proteus vulgaris; [1]): 4 (1001 to 10,000 colonies (thus 10,000 cfu/mL to 100,000 cfu/mL))
- Grade code, P. vulgaris, 3 Days (Proteus vulgaris; [2]): 3 (101 to 1000 colonies (thus 1000 to 10,000 cfu/mL))
- Grade code, P. vulgaris, 3 Days (Proteus vulgaris; [3]): 1 (1 to 51 colonies counted (thus 10 to 510 cfu/mL))
- Grade code, P. vulgaris, 13 Days (Proteus vulgaris; 13 days incubation, listed as 0.5% AB): 4 (1001 to 10,000 colonies (thus 10,000 cfu/mL to 100,000 cfu/mL))
- Grade code, P. vulgaris, 13 Days (Proteus vulgaris; 13 days incubation, listed as 1.25% AB): 2 (52 to 100 colonies counted (thus 520 to 1000 cfu/mL))
- Grade code, P. vulgaris, 13 Days (Proteus vulgaris; 13 days incubation, listed as 2.5% AB): 0 (No growth detected or <1 colony (thus <10 cfu/mL))
- Grade code, P. vulgaris, 30 Day (Proteus vulgaris; [7]): 4 (1001 to 10,000 colonies (thus 10,000 cfu/mL to 100,000 cfu/mL))
- Grade code, P. vulgaris, 30 Day (Proteus vulgaris; [8]): 0 (No growth detected or <1 colony (thus <10 cfu/mL))
- Grade code, P. vulgaris, 30 Day (Proteus vulgaris; [9]): 0 (No growth detected or <1 colony (thus <10 cfu/mL))
